Molecular target: α-chymotrypsin (α-Chymo) (Bos taurus, UniProt P00766)
Assay: UV-Visible titration (Benesi-Hildebrand binding constant), supported by tryptophan fluorescence quenching (Ksv […] at […] K, static) and CD

Kd: 17.5 µM
Structure (SMILES): CNc1ccc2nc3ccc(N)cc3[s+]c2c1 [AzC, AzureC]
